Laboratory results: patent US4841076A, “Benzopyran derivatives” (Daiichi Seiyaku Co., Ltd., priority 1986, dated 1989)

Legend:
Acute toxicity (LD50) = conditions: rat, in vivo, po; P.O. in Rats
Description: The compound of the present invention has a low toxicity, and the acute toxicity (LD50) of typical compounds of formula (I) is shown in the following Table 4.

male rats [1] = assay: Diuretic Activity and Natriuretic Activity; assay type: in vivo; conditions: 300 mg/Kg, orally, urine collected for 5 hours, control value subtracted
Experimental: Male rats weighing 150 to 250 g were fasted overnight and, the next morning, orally administered with either (1) 25 ml/Kg of physiological saline (control group) or (2) a test compound which was suspended in 0.5 wt % carboxymethylcellulose. Urine after dosing was collected for 5 hours, and urinary volume and sodium concentration were measured. Each parameter was calculated by subtracting the value of the control group from that of the test group.

hypertensive rats = assay: Antihypertensive Activity (DOCA/saline hypertensive rats, tail cuff); assay type: in vivo; conditions: DOCA hypertensive rats, orally once a day, systolic pressure vs control
Experimental: Four-week-old male rats weighing 120 to 150 g were subcutaneously injected with DOCA (desoxycorticosterone acetate) and fed on a 1% saline solution to cause hypertension in accordance with the method of Seyle, et al. as described in American Heart Journal, Vol. 37, 1009 (1949). The test compound was orally administered to the hypertensive rats once a day for 4 weeks. The blood pressure of the animal was measured by a tail cuff method every one week from the start of the administration.
In Table 3, antihypertensive activity (ΔmmHg) was obtained by subtracting the systolic pressure of the test group from that of the control group.

male rats [2] = assay: Uricosuric Activity (fractional excretion of uric acid); assay type: in vivo; conditions: orally, 30 min urine from 60 min after dosing
Experimental: Male rats weighing 150 to 250 g were fasted overnight and, the next morning, orally administered with either (1) 25 ml/Kg of physiological saline (control group) or (2) a test compound which was suspended in 0.5 wt % carboxymethylcellulose. After 60 minutes from the administration of the test compound, urine over a period of 30 minutes was collected. Thereafter, blood was taken from the arotid artery under anesthesia, and uric acid concentrations in the urine and the serum were determined by the enzyme method. On the other hand, […] concentrations in the urine and the serum were determined by a Jaffe's method to obtain the fractional excretion of uric acid. Percent of uric acid excretion was calculated by dividing the value of fractional excretion in the test group by that in the control group.

[3] = in words, literature; cited from earlier work

O=C(O)COc1cc(Cl)c2c(=O)c(-c3ccccc3)coc2c1 [(a), [(5-Chloro-4-oxo-3-phenyl-4H-1-benzopyran-7-yl)oxy]acetic acid]
LD50 (Acute toxicity (LD50)): 1020 mg/kg | Increase in Urinary Na^+ (male rats [1]): 1220 ΔμEq | Increase in Urinary Output (male rats [1]): 51.8 Δml/Kg | Antihypertensive Activity After 1 Week (hypertensive rats; 100 mg/Kg): 13.7 ΔmmHg | Antihypertensive Activity After 2 Weeks (hypertensive rats; 100 mg/Kg): 37.0 ΔmmHg | Antihypertensive Activity After 3 Weeks (hypertensive rats; 100 mg/Kg): 49.0 ΔmmHg | % of Uric Acid Excretion (male rats [2]; 100 mg/Kg): 136%

Cc1cc(OCC(=O)O)cc2occ(-c3ccccc3)c(=O)c12 [(b), [(5-Methyl-4-oxo-3-phenyl-4H-1-benzopyran-7-yl)oxy]acetic acid]
LD50 (Acute toxicity (LD50)): 936 mg/kg | Increase in Urinary Na^+ (male rats [1]): 987 ΔμEq | Increase in Urinary Output (male rats [1]): 23.6 Δml/Kg | Antihypertensive Activity After 1 Week (hypertensive rats; 100 mg/Kg): 10.0 ΔmmHg | Antihypertensive Activity After 2 Weeks (hypertensive rats; 100 mg/Kg): 17.9 ΔmmHg | Antihypertensive Activity After 3 Weeks (hypertensive rats; 100 mg/Kg): 15.0 ΔmmHg | % of Uric Acid Excretion (male rats [2]; 100 mg/Kg): 66%

O=C(O)COc1cc(Cl)c2c(=O)c(-c3ccccc3Cl)coc2c1 [(c), {[5-Chloro-3-(2-chlorophenyl)-4-oxo-4H-1-benzopyran-7-yl]oxy}acetic acid]
LD50 (Acute toxicity (LD50)): 1410 mg/kg | Increase in Urinary Na^+ (male rats [1]): 1015 ΔμEq | Increase in Urinary Output (male rats [1]): 41.0 Δml/Kg | Antihypertensive Activity After 1 Week (hypertensive rats; 100 mg/Kg): 13.6 ΔmmHg | Antihypertensive Activity After 2 Weeks (hypertensive rats; 100 mg/Kg): 20.7 ΔmmHg | Antihypertensive Activity After 3 Weeks (hypertensive rats; 100 mg/Kg): 29.3 ΔmmHg | % of Uric Acid Excretion (male rats [2]; 100 mg/Kg): 36%

Cc1ccccc1-c1coc2cc(OCC(=O)O)cc(Cl)c2c1=O [(d), {[5-Chloro-3-(2-methylphenyl)-4-oxo-4H-1-benzopyran-7-yl]oxy}acetic acid]
Increase in Urinary Na^+ (male rats [1]): 1196 ΔμEq | Increase in Urinary Output (male rats [1]): 49.6 Δml/Kg | Antihypertensive Activity After 1 Week (hypertensive rats; 100 mg/Kg): 12.1 ΔmmHg | Antihypertensive Activity After 2 Weeks (hypertensive rats; 100 mg/Kg): 14.3 ΔmmHg | Antihypertensive Activity After 3 Weeks (hypertensive rats; 100 mg/Kg): 15.7 ΔmmHg | % of Uric Acid Excretion (male rats [2]; 100 mg/Kg): 56%

O=C(O)COc1cc(Cl)c2c(=O)c(Cc3ccccc3)coc2c1 [(e), [(3-Benzyl-5-chloro-4-oxo-4H-1-benzopyran-7-yl)oxy]acetic acid]
Increase in Urinary Na^+ (male rats [1]): 967 ΔμEq | Increase in Urinary Output (male rats [1]): 37.9 Δml/Kg | Antihypertensive Activity After 1 Week (hypertensive rats; 100 mg/Kg): 6.2 ΔmmHg | Antihypertensive Activity After 2 Weeks (hypertensive rats; 100 mg/Kg): 28.7 ΔmmHg | Antihypertensive Activity After 3 Weeks (hypertensive rats; 100 mg/Kg): 39.4 ΔmmHg | % of Uric Acid Excretion (male rats [2]; 100 mg/Kg): 39%

O=C(O)COc1ccc(C(=O)c2cccs2)c(Cl)c1Cl [Tienilic acid, [2,3-dichloro-4-(2-thenoyl)phenoxy]acetic acid, reference compound]
Increase in Urinary Na^+ (male rats [1]): 353.4 ΔμEq | Increase in Urinary Output (male rats [1]): 10.2 Δml/Kg | Antihypertensive Activity After 1 Week (hypertensive rats; 300 mg/Kg): 23.6 ΔmmHg | Antihypertensive Activity After 2 Weeks (hypertensive rats; 300 mg/Kg): 35.0 ΔmmHg | Antihypertensive Activity After 3 Weeks (hypertensive rats; 300 mg/Kg): 44.3 ΔmmHg | % of Uric Acid Excretion (male rats [2]; 200 mg/Kg): 38% | diuretic, saluretic and uricosuric activities [3]: having diuretic and uricosuric activities

CC1(c2ccccc2)Cc2cc(OCC(=O)O)c(Cl)c(Cl)c2C1=O (centres unmarked) [indacrinone]
diuretic, saluretic and uricosuric activities [3]: having diuretic and uricosuric activities
